According to patent US6511997B1, “Aminopyrazole derivatives” (Teikoku Hormone Mfg. Co., Ltd., priority 1998, dated 2003):

With O=C(Cc1ccc(F)cc1)Nc1n[nH]c(-c2ccc(F)cc2)c1-c1ccncc1 [Example 26, 5-(4-Fluorophenyl)-3-(4-fluorophenylacetylamino)-4-(4-pyridyl)pyrazole] the melting point was 259.4 to 261.2 °C.
O=C(Cc1ccccc1Cl)Nc1n[nH]c(-c2ccc(F)cc2)c1-c1ccncc1 [Example 24, 3-(2-chlorophenylacetylamino)-5-(4-fluorophenyl)-4-(4-pyridyl)pyrazole] gave a melting point of 238.8 to 240.1 °C.
For CC(C)C(=O)Nc1n[nH]c(-c2ccc(F)cc2)c1-c1ccncc1 [Example 18, 5-(4-Fluorophenyl)-3-isobutyrylamino-4-(4-pyridyl)pyrazole], the melting point was 291.1 to 294 °C.
In the case of Cn1nc(-c2ccc(F)cc2)c(-c2ccncc2)c1NC(=O)Cc1cccc(C(F)(F)F)c1 [Example 72, 3-(4-Fluorophenyl)-1-methyl-4-(4-pyridyl)-5-(3-trifluoromethylphenylacetylamino)pyrazole], the melting point is reported as 193.4 to 195.8 °C.
Cn1nc(-c2ccc(F)cc2)c(-c2ccncc2)c1NC(=O)Cc1ccccc1 [Example 117, 3-(4-Fluorophenyl)-1-methyl-5-phenylacetylamino-4-(4-pyridyl)pyrazole] gave a melting point of 164.9 to 166.5 °C.
With O=C(Cc1ccccc1)Nc1n[nH]c(-c2ccccc2)c1-c1ccncc1 [Example 9, 3-Phenylacetylamino-5-phenyl-4-(4-pyridyl)pyrazole] the melting point was 257.3 to 264.1 °C.
With Cn1nc(-c2ccc(F)cc2)c(-c2ccncc2)c1NC(=O)Cc1ccsc1 [Example 80, 3-(4-Fluorophenyl)-1-methyl-4-(4-pyridyl)-5-(3-thienylacetylamino)pyrazole] the melting point was 151.9 to 154.6 °C.
Work on CSc1ccc(CC(=O)Nc2c(-c3ccncc3)c(-c3ccc(F)cc3)nn2C)cc1 [Example 71, 3-(4-Fluorophenyl)-1-methyl-5-(4-methylthiophenylacetyl-amino)-4-(4-pyridyl)pyrazole] yielded a melting point of 182.5 to 184.7 °C.
CC(C)[C@H](NC(=O)OCc1ccccc1)C(=O)Nc1n[nH]c(-c2ccc(F)cc2)c1-c1ccncc1 [Example 85, 3-(N′-carbobenzoxy-L-valylamino)-5-(4-fluorophenyl)-4-(4-pyridyl)pyrazole] gave a melting point of 231.1 °C.
Work on CN(C(=O)OC(C)(C)C)[C@@H](Cc1ccccc1)C(=O)Nc1n[nH]c(-c2ccc(F)cc2)c1-c1ccncc1 [Example 89, 3-(N′-Carbo-t-butoxy-N′-methyl-L-Phenylalanylamino)-5-(4-fluorophenyl)-4-(4-pyridyl)pyrazole] yielded a melting point of 232.4 to 233.1 °C.
With COc1ccccc1CC(=O)N(C)c1c(-c2ccncc2)c(-c2ccc(F)cc2)nn1C [Example 131, 3-(4-Fluorophenyl)-5-[N-methyl-N-(2-methoxyphenylacetyl)amino]-1-methyl-4-(4-pyridyl)pyrazole] the melting point was 143.6 to 145.3 °C.
For Cn1nc(-c2ccc(F)cc2)c(-c2ccncc2)c1NC(=O)Cc1c[nH]c2ccccc12 [Example 82, 3-(4-Fluorophenyl)-5-(indol-3-ylacetylamino)-1-methyl-4-(4-pyridyl)pyrazole], the melting point was 66.9 to 68.8 °C.
Work on Cn1cccc1CC(=O)Nc1c(-c2ccncc2)c(-c2ccc(F)cc2)nn1C [Example 79, 3-(4-Fluorophenyl)-1-methyl-5-(1-methylpyrrol-2-ylacetylamino)-4-(4-pyridyl)pyrazole] yielded a melting point of 165.1 to 168.1 °C.
Compound O=C(Cc1cccs1)Nc1n[nH]c(-c2ccc(F)cc2)c1-c1ccncc1 [Example 11, 5-(4-Fluorophenyl)-4-(4-pyridyl)-3-(2-thienylacetylamino)pyrazole] has a melting point of 264.6 to 268.3 °C.
With Cn1nc(-c2ccc(F)cc2)c(-c2ccncc2)c1NC(=O)Cc1cccc(F)c1F [Example 49, 5-(2,3-Difluorophenylacetylamno)-3-(4-fluorophenyl)-1-methyl-4-(4-pyridyl)pyrazole] the melting point was 181.3 to 182.5 °C.
Work on Cn1nc(-c2ccc(F)cc2)c(-c2ccncc2)c1NC(=O)Cc1c(Cl)cccc1Cl [Example 38, 5-(2,6-Dichlorophenylacetylamino)-3-(4-fluorophenyl)-1-methyl-4-(4-pyridyl)pyrazole] yielded a melting point of 252.5 to 256.7 °C.
Cn1nc(-c2ccc(F)cc2)c(-c2ccncc2)c1NC(=O)Cc1ccc2c(c1)OCO2 [Example 43, 3-(4-Fluorophenyl)-1-methyl-5-(3,4-methylenedioxyphenylacetylamino)-4-(4-pyridyl)pyrazole] showed a melting point of 113.6 to 116.5 °C.
With Cn1nc(-c2ccc(F)cc2)c(-c2ccncc2)c1NC(=O)Cc1ccc(OCc2ccccc2)cc1 [Example 70, 5-(4-Benzyloxyphenylacetylamino)-3-(4-fluorophenyl)-1-methyl-4-(4-pyridyl)pyrazole] the melting point was 147.8 to 150.1 °C.
Compound COc1ccccc1CC(=O)Nc1c(-c2ccncc2)c(-c2ccc(F)cc2)nn1CCO [Example 104, 3-(4-fluorophenyl)-1-(2-hydroxyethyl)-5-(2-methoxyphenylacetylamino)-4-(4-pyridyl)pyrazole] has a melting point of 200.6 to 204.2 °C.
With COc1cccc(CC(=O)Nc2c(-c3ccncc3)c(-c3ccc(F)cc3)nn2C)c1OC [Example 53, 5-(2,3-Dimethoxyphenylacetylamino)-3-(4-fluorophenyl)-1-methyl-4-(4-pyridyl)pyrazole] the melting point was 185.4 to 193.4 °C.
In the case of Cn1nc(-c2ccc(F)cc2)c(-c2ccncc2)c1NC(=O)Cc1ccc(F)cc1F [Example 40, 5-(2,4-Difluorophenylacetylamino)-3-(4-fluorophenyl)-1-methyl-4-(4-pyridyl)pyrazole], the melting point is reported as 225.5 to 228.3 °C.
Compound O=C(CCc1ccccc1)Nc1n[nH]c(-c2ccc(F)cc2)c1-c1ccncc1 [Example 2, 5-(4-Fluorophenyl)-3-(3-phenylpropionylamino)-4-(4-pyridyl)pyrazole] has a melting point of 253.5 to 255.1 °C.
In the case of Cn1nc(-c2ccc(F)c(Cl)c2)c(-c2ccncc2)c1NC(=O)Cc1ccccc1 [Example 113, 3-(3-Chloro-4-fluorophenyl)-1-methyl-5-phenylacetylamino-4-(4-pyridyl)pyrazole], the melting point is reported as 194.2 to 194.7 °C.
Cn1nc(NC(=O)Cc2ccccc2Cl)c(-c2ccncc2)c1-c1ccc(F)cc1 [Example 118, 3-(2-Chlorophenylacetylamino)-5-(4-fluorophenyl)-1-methyl-4-(4-pyridyl)pyrazole] showed a melting point of 193.8 to 195.3 °C.
Cc1ccc(CC(=O)Nc2n[nH]c(-c3ccc(F)cc3)c2-c2ccncc2)cc1 [Example 7, 5-(4-Fluorophenyl)-3-(4-methylphenylacetylamino)-4-(4-pyridyl)pyrazole] showed a melting point of 262.8 to 264.7 °C.
Cn1nc(-c2ccc(F)cc2)c(-c2ccncc2)c1NC(=O)Cc1cc(C(F)(F)F)cc(C(F)(F)F)c1 [Example 45, 5-(3,5-Ditrifluoromethylphenylacetylamino)-3-(4-fluorophenyl)-1-methyl-4-(4-pyridyl)pyrazole] gave a melting point of 228.3 to 230.6 °C.
C[C@H](N)C(=O)Nc1n[nH]c(-c2ccc(F)cc2)c1-c1ccncc1.Cl gave a melting point of 210.2 to 211.5 °C.
Compound O=C(Cc1c(F)c(F)c(F)c(F)c1F)Nc1n[nH]c(-c2ccc(F)cc2)c1-c1ccncc1 [Example 31, 5-(4-Fluorophenyl)-3-(2,3,4,5,6-pentafluorophenylacetylamino)-4-(4-pyridyl)pyrazole] has a melting point of no less than 325 °C.
With Cn1nc(-c2ccc(F)cc2)c(-c2ccncc2)c1NC(=O)Cc1ccccn1 [Example 76, 3-(4-Fluorophenyl)-1-methyl-4-(4-pyridyl)-5-(2-pyridylacetylamino)pyrazole] the melting point was 148.9 to 149.4 °C.
In the case of CC(C)(C(=O)Nc1n[nH]c(-c2ccc(F)cc2)c1-c1ccncc1)c1ccccc1 [Example 33, 3-(α,α-Dimethylphenylacetylamino)-5-(4-fluorophenyl)-4-(4-pyridyl)pyrazole], the melting point is reported as 239.1 to 241.5 °C.
Compound O=C(Cc1cccc(Cl)c1)Nc1n[nH]c(-c2ccc(F)cc2)c1-c1ccncc1 [Example 25, 3-(3-Chlorophenylacetylamino)-5-(4-fluorophenyl)-4-(4-pyridyl)pyrazole] has a melting point of 249.7 to 250.8 °C.
Compound CN(C(=O)Cc1ccccc1Cl)c1c(-c2ccncc2)c(-c2ccc(F)cc2)nn1C [Example 121, 5-[N-(2-chlorophenylacetyl)-N-methylamino]-3-(4-fluorophenyl)-1-methyl-4-(4-pyridyl)pyrazole] has a melting point of 168.6 to 171.2 °C.
Work on Cn1nc(-c2ccc(F)cc2)c(-c2ccncc2)c1NC(=O)Cc1cc(F)cc(F)c1 [Example 48, 5-(3,5-Difluorophenylacetylamino)-3-(4-fluorophenyl)-1-methyl-4-(4-pyridyl)pyrazole] yielded a melting point of 208.5 to 210.2 °C.
Work on CC(C)CC(=O)Nc1n[nH]c(-c2ccc(F)cc2)c1-c1ccncc1 [Example 19, 5-(4-Fluorophenyl)-3-isovalerylamino-4-(4-pyridyl)pyrazole] yielded a melting point of 291.1 to 294 °C.
Compound CC(C)[C@H](N)C(=O)Nc1n[nH]c(-c2ccc(F)cc2)c1-c1ccncc1.Cl has a melting point of 205.3 to 206.4 °C.
For O=C(Cc1ccc([N+](=O)[O-])cc1)Nc1n[nH]c(-c2ccc(F)cc2)c1-c1ccncc1 [Example 27, 5-(4-Fluorophenyl)-3-(4-nitrophenylacetylamino)-4-(4-pyridyl)pyrazole], the melting point was 299.3 to 302.3 °C.
Work on Cn1nc(-c2ccc(F)cc2)c(-c2ccncc2)c1NC(=O)Cc1cccnc1 [Example 77, 3-(4-Fluorophenyl)-1-methyl-4-(4-pyridyl)-5-(3-pyridylacetylamino)pyrazole] yielded a melting point of 220 to 220.9 °C.
Work on O=C(Cc1ccc(Cl)cc1)Nc1n[nH]c(-c2ccc(F)cc2)c1-c1ccncc1 [Example 6, 3-(4-Chlorophenylacetylamino)-5-(4-fluorophenyl)-4-(4-pyridyl)pyrazole] yielded a melting point of 273.2 to 277.3 °C.
In the case of Cc1ccccc1CC(=O)Nc1c(-c2ccncc2)c(-c2ccc(F)cc2)nn1C [Example 67, 3-(4-Fluorophenyl)-1-methyl-5-(2-methylphenylacetylamino)-4-(4-pyridyl)pyrazole], the melting point is reported as 197.6 to 200.5 °C.
Compound Cn1nc(-c2ccc(F)cc2)c(-c2ccncc2)c1NC(=O)C(F)c1ccccc1 (stereo not drawn) [Example 74, 3-(4-Fluorophenyl)-5-(α-fluorophenylacetylamino)-1-methyl-4-(4-pyridyl)pyrazole] has a melting point of 92.1 to 96.1 °C.
